Four molecules from patent US6147076A, “Analogues of N-acetylardeemin, method of preparation and uses thereof” (priority 1996, dated 2000) can be followed below.

Several values for one entry are separate records, joined by “and”; a condition that tells them apart may be missing. Identical values can stand only once. Like-named read-outs stand apart in the source and are kept apart here.

For orientation: IC90 means the concentration at which the effect reaches the 90% level. Read a high IC90 as weaker potency. As a reminder, the IC80 is the concentration needed for an effect of 80%. Lower therefore signals greater potency.

For one data set, the system named is CCRF-CEM/VM-1 cells. The data set is described as follows: Cytotoxicity toward VM-26-resistant CCRF-CEM/VM-1 cells (mutated Topo II gene). In kind it is cell-based, human.
Data set [1] relates to CCRF-CEM cells. Briefly: Intracellular accumulation of [3H]vinblastine in CCRF-CEM cells. It is filed as cell-based, human. Conditions: 30 μM. As to the method:
(§1) *Cells were preloaded with [^3 H]
(§2) times (or without wash) with 100 ml cold medium to remove extracellular
(§3) with or without a reverse prenyl compound or an MDRreversing agent. Cells
(§4) were then separated from radioactive medium by microfuge oillayer method.
(§5) Extracellular space counts carried down # by cells (^3 HInulin space
(§6) were subtracted from the total radioactive counts.

In another data set the test system is CCRF-CEM/VLB-100 cells. Briefly: Intracellular accumulation of [3H]vinblastine in CCRF-CEM/VLB-100 cells. It is filed as cell-based, human. Conditions: 30 μM. Here is the method:
as §1, §2, §3, §4, §5, §6

The test system of data set [2] is DC-3F hamster lung cells. Conditions: dc-3f cells.
Data set [3] has as its system DC-3F/ADII cells.
In data set [4] the test system is CCRF-CEM cells.
For data set [5], the system named is CCRF-CEM/VBL100 cells.
The test system of data set [6] is DC-3F hamster lung cells. Briefly: Cytotoxicity toward DC-3F hamster lung cells.
The test system of data set [7] is CCRF-CEM cells. Briefly: Cytotoxicity / growth inhibition of CCRF-CEM leukemic cells.
In data set [8] the test system is CCRF-CEM cells. Briefly: Influx of [3H]VP-16 in CCRF-CEM cells. It is filed as cell-based, human.
A further data set relates to CCRF/VM-1 cells. Briefly: Intracellular accumulation of VP-16 in CCRF/VM-1 cells. To be noted: Homo sapiens, 0.5 h, read-out: increase of VP-16 accumulation.
In data set [9] the test system is CCRF-CEM cells. Briefly: Accumulation of VP-16 in CCRF-CEM cells preloaded with [3H]VP-16. To be noted: Homo sapiens, 0.5 h, read-out: increase of intracellular accumulation of VP-16.
The test system of another data set is P388/O tumor. The data set is described as follows: Combination therapy of adriamycin & 5-N-acetyl-ardeemin or verapamil in B6D2F1 mice bearing P388/O tumor.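 Further: male BDF mice carrying P388/O given intraperitoneally, dosing begun on day 1 on a QDX4, QWX2 schedule, five animals per dose level.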 Conditions: VPML 70 mg/kg (then 35).
A further data set has as its system P388/DX tumor. Briefly: Combination therapy of adriamycin & 5-N-acetyl-ardeemin or verapamil in B6D2F1 mice bearing P388/DX tumor.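 Further: male BDF mice implanted intraperitoneally with P388/DX cells, 10^6 per mouse, dosed from day 1 on a QDX4, QWX2 schedule, five mice per dose group.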 To be noted: VPML 70 mg/kg (then 35).
In a further data set the test system is DC-3F/ADX cells. The data set is described as follows: Cytotoxicity toward DC-3F/ADX cells. In kind it is cell-based, hamster.
For the next data set, the system named is P388/0 tumor. Conditions: DMNAA 50.0 mg/kg.
For data set [10], the system named is DC-3F/ADII cells. Briefly: cells. Conditions: Mesocricetus auratus, DC3F, read-out: IC50 (B).
The subject of data set [11] is CCRF-CEM/VBL100 cells. The data set is described as follows: cells. Conditions: Homo sapiens, read-out: IC50 of reversing agent, Table 6B, CCRF-CEM/VBL.
Where [12] appears, read: Mesocricetus auratus, DC3F, relative cytotoxicity, DC-3F.
Setting [13] is: Homo sapiens, human leukemic CCRF-CEM cells.

Method for P388/0 tumor: ^a Male BDF mice were inoculated with P388/O, 10^6 cell/mouse,
i.p. on day 0; and started treatment on day 1, i.p., Q5Dx5, besides mice
with dose VBL 3.0 and VBL 3.0 mg/kg + DMNAA 50 mg/kg, only one injection
i.p., on day 1. There were five mice at every dose and ten in the control
From the text for P388/DX tumor: ^a Male BDF mice were inoculated P388/DX, 10^6 cells/mouse, i.p.
starting day 1, QDX4, QWX2. There were five mice at every dose and ten
From the text for P388/O tumor: ^a Male BDF mice were inoculated P388/O, 10^6 cells/mouse, i.p. a
starting day 1, QDX4, QWX2.

For `C=CCC12CC3c4nc5ccccc5c(=O)n4C(C)C(=O)N3C1N(C(C)=O)c1ccccc12` (stereo not shown) [5-N-Ac"Allyl" ardeemin, "Allyl" 5-N-acetylardeemin], the IC50 with CCRF-CEM/VM-1 cells (ccrf-cem/vm-1 cells) came out at 45 µM; in the data set with DC-3F/ADII cells [3] (dc-3f/adii cells), 5.21 µM; with CCRF-CEM cells [4], 53.3 µM; in the data set on CCRF-CEM/VBL100 cells [5] (ccrf-cem/vbl100 cells) it was 35.8 µM; with DC-3F hamster lung cells [6] (setting [12]), 17.4 µM; in the data set on CCRF-CEM cells [7] (setting [13]), 53.3 µM. Also, the IC90 in the data set on CCRF-CEM/VM-1 cells (ccrf-cem/vm-1 cells) came out at 916 µM; in the data set with DC-3F hamster lung cells [2], 56.2 µM; in the data set on DC-3F/ADII cells [3] (dc-3f/adii cells) it was 34.7 µM; in the data set with CCRF-CEM cells [4] it was 888 µM; with CCRF-CEM/VBL100 cells [5] (ccrf-cem/vbl100 cells), 81.1 µM. Besides, the “[3H]vinblastine accumulation” value with CCRF-CEM cells [1] (washed) is 28.88 fmole/10^3 cells; in the data set on CCRF-CEM cells [1] (without wash), 33.35 fmole/10^3 cells; in the data set on CCRF-CEM/VLB-100 cells (washed) it was 6.18 fmole/10^3 cells; in the data set on CCRF-CEM/VLB-100 cells (without wash) it was 27.21 fmole/10^3 cells. For the same molecule, in the data set on DC-3F hamster lung cells [2], it took 17.4 µM to reach the 80% level (IC80).

Consider `C=CC(C)(C)C12CC3c4nc5ccccc5c(=O)n4C(C)C(=O)N3C1Nc1ccccc12` (stereo not shown) [Ardeemin], for which the IC90 came out at 88.8 µM with CCRF-CEM/VM-1 cells (ccrf-cem/vm-1 cells); 30.9 µM with DC-3F hamster lung cells [2]; 24.6 µM with DC-3F/ADII cells [3] (dc-3f/adii cells); 65.7 µM in the data set with CCRF-CEM cells [4]; 27.9 µM in the data set on CCRF-CEM/VBL100 cells [5] (ccrf-cem/vbl100 cells). Besides, the activation at 20 µM in the data set on CCRF-CEM cells [8] (Homo sapiens, CCRF-CEM, 0.5 h, 20 μM, 30 min, 37° C., read-out: increase of VP-16 accumulation) is 33%. Moreover, the “[3H]vinblastine accumulation” value in the data set on CCRF-CEM cells [1] (washed) is 29.94 fmole/10^3 cells; in the data set with CCRF-CEM cells [1] (without wash), 34.68 fmole/10^3 cells; in the data set with CCRF-CEM/VLB-100 cells (washed) it was 5.42 fmole/10^3 cells; in the data set on CCRF-CEM/VLB-100 cells (without wash), 22.84 fmole/10^3 cells. The molecule further showed an IC80 in the data set with DC-3F hamster lung cells [2] of 10.2 µM. Further, the IC50 with DC-3F hamster lung cells [6] (setting [12]) came to 10.2 µM; in the data set with CCRF-CEM cells [7] (setting [13]) it was 20.8 µM. For the same molecule, the fold induction at 20 µM with CCRF/VM-1 cells came to 1.51; with CCRF-CEM cells [9] it was 3.1.

Turning to `COc1ccc(CCN(C)CCCC(C#N)(c2ccc(OC)c(OC)c2)C(C)C)cc1OC` (stereo not shown) [Verapamil, verapamil], the IC50 with CCRF-CEM/VM-1 cells (Table 6B, CCRF-CEM/VM-1, read-out: IC50 of reversing agent) stood at 118 µM; in the data set with CCRF-CEM/VBL100 cells [5] (read-out: IC50 of reversing agent, Table 6B, CCRF-CEM/VBL) it was 118 µM; in the data set on CCRF-CEM cells [7] (read-out: IC50 of reversing agent, Table 6B), 296 µM. For the same molecule, the VP-16 accumulation result with CCRF-CEM cells [8] (100 μM, in words) is listed as “also increased VP-16 accumulation”. Further, the collateral sensitivity result with DC-3F/ADII cells [3] (in words) is reported as “Collateral sensitivity is also observed”. The “% ILS” value in the data set with P388/O tumor was “+1%”; with P388/DX tumor, “+5%”. Also, the MST in the data set on P388/O tumor worked out at 7.7 days; with P388/DX tumor, 7.9 days. Further, the Days survived was 7.0 days and 8.0 days and 8.6 days with P388/O tumor (individual mice 1-5); 6.5 days and 7.25 days and 8.25 days and 9.25 days in the data set on P388/DX tumor (individual mice 1-5).

Turning to `C=CC(C)(C)C12CC3c4nc5ccccc5c(=O)n4CC(=O)N3C1N(C(C)=O)c1ccccc12` (stereo not shown) [5-N-Ac-8-desmethyl-Ardeemin, N-Acetyl-8-desmethyl-ardeemin], the IC50 is 3.98 µM in the data set on DC-3F/ADX cells (DC3F/ADX, DC-3F/ADX); 35.8 µM in the data set on CCRF-CEM/VM-1 cells (Homo sapiens, CCRF-CEM, Table 6B, CCRF-CEM/VM-1, read-out: IC50 of reversing agent); 14.6 µM in the data set on DC-3F/ADII cells [10]; 32.9 µM in the data set on CCRF-CEM/VBL100 cells [11]; 29.3 ± 8.38 µM with DC-3F hamster lung cells [6] (Mesocricetus auratus, DC3F, read-out: IC50 (A), mean ± spread, mean of the determinations); 37.7 µM in the data set with DC-3F hamster lung cells [6] (Mesocricetus auratus, DC3F, read-out: IC50 (A), single determinations). Further, the IC50 with DC-3F hamster lung cells [6] (read-out: IC50 (A), single determinations) was determined as 20.9 µM; in the data set with CCRF-CEM cells [7] (Homo sapiens, read-out: IC50 of reversing agent, Table 6B, CCRF-CEM), 22.7 µM. The “(C)/(A)” value with DC-3F/ADX cells (IC50 ratio DC-3F/ADX to DC-3F, * collaterally sensitive) is 0.14 X. Further, the “[3H]vinblastine accumulation” value with CCRF-CEM cells [1] (washed) is given as 29.33 fmole/10^3 cells; in the data set with CCRF-CEM cells [1] (without wash) it was 33.13 fmole/10^3 cells; in the data set with CCRF-CEM/VLB-100 cells (washed), 7.66 fmole/10^3 cells; with CCRF-CEM/VLB-100 cells (without wash) it was 33.53 fmole/10^3 cells. Further, the “(B)/(A)” value with DC-3F/ADII cells [3] (IC50 ratio DC-3F/ADII to DC-3F, * collaterally sensitive) is listed as 0.50 X. Further, the “% ILS” value in the data set on P388/0 tumor is listed as “+1%”. Also, the MST in the data set with P388/0 tumor worked out at 8.40 days.
